Patent publication US9487462B2, “Inhibitors of matrix metalloproteinases” (PharmaHungary 2000 Kft., priority 2010, dated 2016)
pIC50: −log10 of the molar value. Counter-ions that a name gives are not always drawn.

Tests used:
[1] = biological target: MMP2 (Homo sapiens, UniProt P08253); experiment: MMP activity assay (fluorogenic substrate), MMP2 catalytic domain; type: biochemical; settings: Table 2; read-out: MMP2 IC50
Description: (§1) MMP activity assays were conducted as follows: MMP2, MMP9, MMP13 catalytic domain was expressed in E. coli in form of inclusion bodies followed by refolding and purification.
(§2) The Protocol of the Activity Assay:
(§3) Stock solution of substrate (Mca-Lys-Pro-Leu-Gly-Leu-Dpa-Ala-Arg-NH2) was prepared in DMSO at a concentration of 6 mM. Assays were performed in an assay buffer (50 mM Tris pH 7.5, 300 mM NaCl, 10 μM ZnSO4, 5 mM CaCl2, 0.005% Brij-35). The final DMSO concentration in all assays was 1.0%. […] The assays were carried out at 37° C. The fluorescence changes, resulting from the substrate cleavage, were detected using excitation at 340 nm and emission wavelength of 405 nm using a Wallac 1420 Microplate Reader. The reaction mixtures were preincubated with the inhibitors for 30 minutes. The reactions were started by the addition of MMP substrate, and the fluorescence intensity changes were measured after 60 minutes. The obtained fluorescence values were normalized and % inhibition values calculated. Dose response curves were determined from 6 concentration points using three fold dilution steps, each concentration point was determined in duplicate. IC50 values were calculated from the dose response curves.

[2] = biological target: MMP1 (Homo sapiens (Human), UniProt P03956); experiment: MMP activity assay (fluorogenic substrate), MMP1; type: biochemical; settings: Table 2; read-out: MM1 IC50
[3] = Cytotoxicity, alamarBlue viability, MRC-5; type: cell-based; settings: human, MRC-5 fibroblast cells, 48 hours incubation, read-out: MRC-5 LC50
Description: (§4) Beside the inhibitory effect on MMPs we tested the cytotoxicity of the selected compounds. These measurements were done in parallel on two cell lines. One of them was the healthy human fibroblast cell line MRC-5 while the other was the human colon tumor cell line HCT116. The viability of the cells was monitored using alamarBlue. This dye is reduced by the cells resulting in an increased fluorescent signal which is proportional to the number of living cells. Cells were incubated with the dilutions of the tested compounds for 48 hours then alamarBlue was added to them for 4 hours. After that the fluorescence changes were detected using excitation at 540 nm and emission wavelength of 590 nm by a Wallac 1420 Microplate Reader. IC50 values were determined for the compounds using six concentrations and duplicate points for each concentration.

[4] = Cytotoxicity, alamarBlue viability, HCT116; type: cell-based; settings: human, HCT116 colon tumor cells, 48 hours incubation, read-out: HCT116 LC50
Description: as §4

[5] = biological target: MMP13 (Homo sapiens (Human), UniProt P45452); experiment: MMP activity assay (fluorogenic substrate), MMP13 catalytic domain; type: biochemical; settings: Table 2; read-out: MMP13 IC50
Description: as §1, §2
as §3, with “The fluorescence changes, resulting from the substrate cleavage, were detected using excitation at 340 nm and emission wavelength of 405 nm using a Wallac 1420 Microplate Reader.” left out

[6] = biological target: MMP9 (Homo sapiens, UniProt P14780); experiment: MMP activity assay (fluorogenic substrate), MMP9 catalytic domain; type: biochemical; settings: Table 2
Description: as §1, §2, §3

[7] = tested on: neonatal rat cardiac myocytes; experiment: Cytoprotective effect in cardiac myocytes subjected to hypoxia and reoxygenation; type: cell-based
Description: Neonatal rat hearts were digested and isolated cardiomyocytes were plated onto 24-well plastic plates at […]. The cells were maintained at 37° C. in a humidified atmosphere of 5% CO2 and 95% air in a CO2 incubator until confluence was reached. Cultures at day 3 were used for treatments. Cells were kept under normoxic or simulated ischemic conditions, i.e. the growth medium was changed to a normoxic or hypoxic solution and the cells were incubated under 95% air and 5% CO2 or 95% N2 and 5% CO2 at 37° C. for 4 h, respectively as described in detail (Gorbe A, Giricz Z, Szunyog A, Csont T, Burley D S, Baxter G F, Ferdinandy P. Role of cGMP-PKG signaling in the protection of neonatal rat cardiac myocytes subjected to simulated ischemia/reoxygenation. Basic Res Cardiol. 105:643-650, 2010). The positive control ilomastate (0.5 microM) and MMP-inhibitors at different effective concentrations (EC 5, EC 10, EC 20, and EC50 as determined in previous test examples) were applied during normoxia or simulated ischemia and also during reoxygenation. The vehicle was DMSO. Cell viability was determined after Calcein A M fluorescent staining as described (Karliner J S, Honbo N, Summers K, Gray M O, Goetzl E J. The lysophospholipids sphingosine-1-phosphate and lysophosphatidic acid enhance survival during hypoxia in neonatal rat cardiac myocytes. J Mol Cell Cardiol, 33:1713-7, 2001). Total cell count was determined after digitonin treatment to permeabilize the cells by using propidium iodine fluorescent staining (Roy S S, Hajnoczky G. Calcium, mitochondria and apoptosis studied by fluorescence measurements. Methods. 46:213-223, 2008).

Chain of MMP1 (P03956 100-469, species assumed): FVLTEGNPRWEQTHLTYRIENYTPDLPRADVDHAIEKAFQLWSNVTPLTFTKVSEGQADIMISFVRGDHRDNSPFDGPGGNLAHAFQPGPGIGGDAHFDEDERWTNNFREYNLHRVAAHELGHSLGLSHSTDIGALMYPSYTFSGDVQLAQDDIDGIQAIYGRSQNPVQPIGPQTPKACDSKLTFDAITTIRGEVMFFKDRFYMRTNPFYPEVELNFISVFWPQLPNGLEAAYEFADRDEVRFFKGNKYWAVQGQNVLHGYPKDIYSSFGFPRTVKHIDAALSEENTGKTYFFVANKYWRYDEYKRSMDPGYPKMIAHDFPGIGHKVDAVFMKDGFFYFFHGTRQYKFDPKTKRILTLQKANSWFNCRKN

| SMILES | pIC50 [1] | pIC50 [2] | CC50 at 48 h [3] [µM] | CC50 at 48 h [4] [µM] | pIC50 [5] | pIC50 [6] | further results |
| --- | --- | --- | --- | --- | --- | --- | --- |
| CCOC(=O)c1csc(CN(Cc2ccc(F)cc2)Cc2ccc(OCc3cccnc3)cc2)n1 [Compound 2, Ethyl 2-({[(4-fluorophenyl)methyl]({[4-(pyridin-3-ylmethoxy)phenyl]methyl})amino}methyl)-1,3-thiazole-4-carboxylate] | 3.98 | 3.73 | 0.8 | 0.5 | 5.43 | 3.79 |  |
| O=C(O)c1csc(CN(Cc2ccc(OCc3ccccc3)cc2)CC(c2ccccc2)c2ccccc2)n1 [Compound 6, 2-[({[4-(Benzyloxy)phenyl]methyl}(2,2-diphenylethyl)amino)methyl]-1,3-thiazole-4-carboxylic acid] |  |  | 18 | 3.5 |  |  |  |
| O=C(O)c1csc(CN(Cc2ccccc2)Cc2ccccc2)n1 [Compound 7, 2-[(Dibenzylamino)methyl]-1,3-thiazole-4-carboxylic acid] | 5.00 | 4.96 | 117 | 73 | 5.49 | 4.89 |  |
| O=C(O)c1csc(CN(Cc2ccc(OCc3cccnc3)cc2)Cc2cccc(F)c2)n1 [Compound 8, 2-[({[4-(Pyridin-3-ylmethoxy)phenyl]methyl}[(3-fluorophenyl)methyl]amino)methyl]-1,3-thiazole-4-carboxylic acid] |  |  |  |  |  |  | Cytoprotective effect, % cell survival as compared to vehicle DMSO ([7]; normoxia, EC5 concentration 0.7 microM): 99 ± 4%; Cytoprotective effect, % cell survival as compared to vehicle DMSO ([7]; normoxia, EC10 concentration 2.0 microM): 103 ± 4%; Cytoprotective effect, % cell survival as compared to vehicle DMSO ([7]; normoxia, EC20 concentration 6.0 microM): 119 ± 5 %; Cytoprotective effect, % cell survival as compared to vehicle DMSO ([7]; normoxia, EC50 concentration 18.0 microM): 127 ± 4 %; Cytoprotective effect, % cell survival as compared to vehicle DMSO ([7]; simulated ischemia, EC5 concentration 0.7 microM): 117 ± 12%; Cytoprotective effect, % cell survival as compared to vehicle DMSO ([7]; simulated ischemia, EC10 concentration 2.0 microM): 120 ± 8%; Cytoprotective effect, % cell survival as compared to vehicle DMSO ([7]; simulated ischemia, EC20 concentration 6.0 microM): 144 ± 25%; Cytoprotective effect, % cell survival as compared to vehicle DMSO ([7]; simulated ischemia, EC50 concentration 18.0 microM): 107 ± 8% |
| O=C(O)c1csc(CN(Cc2ccc(F)cc2)Cc2ccc(OCc3ccncc3)cc2)n1 [Compound 9, 2-({[(4-Fluorophenyl)methyl]({[4-(pyridin-4-ylmethoxy)phenyl]methyl})amino}methyl)-1,3-thiazole-4-carboxylic acid] | 5.10 | 4.33 | 12 | 4.7 | 5.91 | 5.06 |  |
| CCOC(=O)c1csc(CN(Cc2ccc(F)cc2)Cc2ccc(OCc3ccccc3)cc2)n1 [Compound 11, Ethyl 2-[({[4-(benzyloxy)phenyl]methyl}[(4-fluorophenyl)methyl]amino)methyl]-1,3-thiazole-4-carboxylate] |  |  | 12 | 5.8 |  |  |  |
| O=C(O)c1csc(CN(Cc2ccncc2)Cc2ccc(OCc3ccccc3)cc2)n1 [Compound 13, 2[({[4-(Benzyloxy)phenyl]methyl}(pyridin-4-ylmethyl)amino)methyl]-1,3-thiazole-4-carboxylic acid] | 4.27 | 3.94 | 11 | 20 | 5.82 | < 3.30 |  |
| CCOC(=O)c1csc(CN(Cc2ccc(OCc3cccnc3)cc2)Cc2cccnc2)n1 [Compound 17, Ethyl 2-[({[4-(pyridin-3-ylmethoxy)phenyl]methyl}(pyridin-3-ylmethyl)amino)methyl]-1,3-thiazole-4-carboxylate] | 3.71 | 3.70 | 15 | 47 | 4.72 | 3.64 |  |
| CCOC(=O)c1csc(CN(Cc2ccc(F)cc2)Cc2ccc(OCc3ccncc3)cc2)n1 [Compound 18, Ethyl 2-({[(4-fluorophenyl)methyl]({[4-(pyridin-4-ylmethoxy)phenyl]methyl})amino}methyl)-1,3-thiazole-4-carboxylate] | < 3.30 | < 3.30 | 2.9 | 0.04 | 4.89 | 3.64 |  |
| CCOC(=O)c1csc(CN(Cc2ccc(OCc3ccncc3)cc2)Cc2cccnc2)n1 [Compound 19, Ethyl 2-{[(pyridin-3-ylmethyl)({[4-(pyridin-4-ylmethoxy)phenyl]methyl})amino]methyl}-1,3-thiazole-4-carboxylate] | 3.70 | 3.72 | 27 | 7.3 | 4.72 | < 3.30 |  |
| O=C(O)c1c[nH]c(CNCc2ccc(OCc3cccnc3)cc2)n1 [Compound 31 HCl, 2-[({[4-(Pyridin-3-ylmethoxy)phenyl]methyl}amino)methyl]-1H-imidazole-4-carboxylic acid] |  |  |  |  |  |  | Cytoprotective effect, % cell survival as compared to vehicle DMSO ([7]; normoxia, EC5 concentration 0.25 microM): 108 ± 4%; Cytoprotective effect, % cell survival as compared to vehicle DMSO ([7]; normoxia, EC10 concentration 1.0 microM): 103 ± 3%; Cytoprotective effect, % cell survival as compared to vehicle DMSO ([7]; normoxia, EC20 concentration 4.0 microM): 106 ± 4%; Cytoprotective effect, % cell survival as compared to vehicle DMSO ([7]; normoxia, EC50 concentration 16.0 microM): 103 ± 3%; Cytoprotective effect, % cell survival as compared to vehicle DMSO ([7]; simulated ischemia, EC5 concentration 0.25 microM): 116 ± 8 %; Cytoprotective effect, % cell survival as compared to vehicle DMSO ([7]; simulated ischemia, EC10 concentration 1.0 microM): 107 ± 3%; Cytoprotective effect, % cell survival as compared to vehicle DMSO ([7]; simulated ischemia, EC20 concentration 4.0 microM): 126 ± 2 %; Cytoprotective effect, % cell survival as compared to vehicle DMSO ([7]; simulated ischemia, EC50 concentration 16.0 microM): 127 ± 3 % |
| FC(F)(F)c1cnc(CCc2ccccc2)[nH]1 [Compound 35, 2-Phenethyl-5-trifluoromethyl-1H-imidazole] | < 3.30 |  |  |  | 3.30 | < 3.30 |  |
| O=C(O)c1cnc(CCc2ccccc2)[nH]1 [Compound 36, 2-Phenethyl-3H-imidazole-4-carboxylic acid] | < 3.30 |  |  |  | 3.52 | < 3.30 |  |
| COC(=O)c1cnc(CCc2ccccc2)[nH]1 [Compound 37, 2-Phenethyl-3H-imidazole-4-carboxylic acid methyl ester] | 4.18 |  |  |  | < 3.30 | 3.84 |  |
| O=C(c1cnc(CCc2ccccc2)[nH]1)N1CCCC1 [Compound 38, (2-Phenethyl-3H-imidazol-4-yl)-pyrrolidin-1-yl-methanone] | 4.21 |  |  |  | 4.27 | 4.10 |  |
| FC(F)(F)c1cnc(-c2ccccc2)[nH]1 [Compound 39, 2-Phenyl-5-trifluoromethyl-1H-imidazole] | < 3.30 |  |  |  | 3.47 | < 3.30 |  |
| O=C(O)c1cnc(-c2ccccc2)[nH]1 [Compound 40, 2-Phenyl-3H-imidazole-4-carboxylic acid] | 3.86 |  |  |  | 3.78 | 3.60 |  |
